The record followed here is patent publication US20050165032A1, “Vanilloid receptor ligands and their use in treatments” (priority 2004, published 2005).

One may read the melting point as the temperature of the solid-liquid transition.

With `CC(=O)Nc1nc2c(Nc3ncnc4cc(Cl)ccc34)cccc2s1` [Example 2, N-[4-(7-Chloro-quinazolin-4-ylamino)-benzothiazol-2-yl]-acetamide], the melting point is 229.8 °C. The result for `Cl.Clc1ccc2c(Nc3ccc4c(c3)OCCO4)ncnc2c1` reads 304 to 306 °C; that for `FC(F)(F)c1ccc(Nc2ncnc3c2CCN(c2ncccc2C(F)(F)F)C3)cn1` [Example 10, (6-Trifluoromethyl-pyridin-3-yl)-[7-(3-trifluoromethyl-pyridin-2-yl)-5,6,7,8-tetrahydro-pyrido[3,4-d]pyrimidin-4-yl]-amine], 144.5 to 150 °C.

For the compound `CC(C)(C)c1ccc(Oc2ncnc3cc(-c4ncccc4C(F)(F)F)ccc23)cc1` [Example 17, 4-(4-tert-Butyl-phenoxy)-7-(3-trifluoromethyl-pyridin-2-yl)-quinazoline], the melting point lay within 162 to 163 °C.
